Data from patent US10214546B2, “Btk inhibitors” (MERCK SHARP & DOHME CORP., priority 2014, dated 2019).
pIC50: −log10 of the molar value. Like-named read-outs stand apart in the source and are kept apart here.

Tests used:
[1] = target: BTK enzyme (recombinant full-length BTK, hBTK) (Homo sapiens (Human), UniProt Q06187); assay: BTK enzymatic activity LANCE TR-FRET assay; type: biochemical; details: 50 pM hBTK, 25 μM ATP, 2 μM biotin-A5-peptide; compound range 1 μM to 0.017 nM; read-out: BTK binding IC50
[2] = test system: adenosine uptake into HeLa cells; assay: [3H]Adenosine uptake assay in HeLa cells; type: cell-based; details: [3H]adenosine accumulation in HeLa cells, compound range 10 μM to 0.032 nM, read-out: ADU inhibition IC50
Outline: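 HeLa cells in HBSS + 5% FBS were preincubated 30 min at ambient temperature with compound (ten-point 1:3 series, 10 µM–[…] final), then given [3H]adenosine (added as a 500 nM solution) for 60 min. Cell-associated label was read by scintillating-plate proximity counting; IC50 from 4-parameter fit of cps versus log concentration.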

BTK enzyme (recombinant full-length BTK, hBTK), sequence (Q06187 whole entry): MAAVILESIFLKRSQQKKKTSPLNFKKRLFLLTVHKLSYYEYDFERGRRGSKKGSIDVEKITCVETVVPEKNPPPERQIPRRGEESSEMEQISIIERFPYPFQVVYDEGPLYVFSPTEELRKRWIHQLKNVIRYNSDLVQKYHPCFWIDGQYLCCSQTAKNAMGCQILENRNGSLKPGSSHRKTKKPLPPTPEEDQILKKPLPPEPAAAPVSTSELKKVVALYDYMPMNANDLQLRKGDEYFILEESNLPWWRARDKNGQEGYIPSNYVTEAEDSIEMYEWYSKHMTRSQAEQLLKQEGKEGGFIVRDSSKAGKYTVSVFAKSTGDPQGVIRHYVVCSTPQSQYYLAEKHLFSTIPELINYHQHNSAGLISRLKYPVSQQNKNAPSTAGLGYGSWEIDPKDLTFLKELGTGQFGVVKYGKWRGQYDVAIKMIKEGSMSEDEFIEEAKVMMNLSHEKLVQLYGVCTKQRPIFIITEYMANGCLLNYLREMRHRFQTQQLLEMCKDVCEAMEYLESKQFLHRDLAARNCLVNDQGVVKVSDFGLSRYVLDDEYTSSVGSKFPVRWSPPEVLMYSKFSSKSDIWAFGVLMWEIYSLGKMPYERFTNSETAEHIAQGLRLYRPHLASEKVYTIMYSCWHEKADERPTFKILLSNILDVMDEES

| pIC50 [1] | pIC50 ([2]; Homo sapiens, HeLa) | pIC50 [2] | Structure (SMILES) |
| --- | --- | --- | --- |
| 7.59 |  | 5.95 | COc1cc(C(C)(O)c2cccc(C(F)(F)F)c2)ccc1-c1nc([C@@H]2CC[C@@H]3N(C2)C(=O)CC3(C)C)n2ccnc(N)c12 (stereo partly drawn) [Example 209, (6R,8aS)-6-[8-amino-1-(4-{1-hydroxy-1-[3-(trifluoromethyl)phenyl]ethyl}-2-methoxyphenyl)imidazo [1,5-a]pyrazin-3-yl]-1,1-dimethylhexahydroindolizin-3(2H)-one] |
| 8.42 | 5.26 |  | COc1cc([C@@](C)(O)c2cccc(C(F)(F)F)c2)ccc1-c1nc([C@@H]2CC[C@H]3CC(C)(C)C(=O)N3C2)n2ccnc(N)c12 [Example 206, (6R,8aS)-6-[8-amino-1-(4-{(1S)-1-hydroxy-1-[3-(trifluoromethyl)phenyl]ethyl}-2-methoxyphenyl)imidazo [1,5-a]pyrazin-3-yl]-2,2-dimethylhexahydroindolizin-3(2H)-one] |
| 9.20 | 5.38 |  | CCOc1cc(C(C)(O)c2cccc(C(F)(F)F)c2)ccc1-c1nc([C@@H]2CC[C@H]3CCC(=O)N3C2)n2ccnc(N)c12 (stereo partly drawn) [Example 162, (6R,8aS)-6-[8-amino-1-(2-ethoxy-4-{1-hydroxy-1-[3-(trifluoromethyl)phenyl]ethyl}phenyl)imidazo [1,5-a]pyrazin-3-yl]hexahydroindolizin-3(2H)-one] |
| 8.14 | 5.34 |  | C[C@@](O)(c1ccc(-c2nc([C@H]3CN4C(=O)CC[C@@H]4CO3)n3ccnc(N)c23)cc1)c1cccc(C(F)(F)F)c1 [Example 169, (3R,8aR)-3-[8-amino-1-(4-{(1R)-1-hydroxy-1-[3-(trifluoromethyl)phenyl]ethyl}phenyl)imidazo[1,5-a]pyrazin-3-yl]hexahydro-6H-pyrrolo[2,1-c][1,4]oxazin-6-one] |
| 6.93 | 6.34 |  | C[C@](O)(c1ccc(-c2nc([C@@H]3CC[C@H]4CCC(=O)N4C3)n3c(Cl)cnc(N)c23)cc1)c1cccc(C(F)F)c1 [Example 133, (6R,8aS)-6-[8-amino-5-chloro-1-(4-{(1S)-1-[3-(difluoromethyl)phenyl]-1-hydroxyethyl}phenyl)imidazo[1,5-a]pyrazin-3-yl]hexahydroindolizin-3(2H)-one] |
| 8.60 |  | 5.46 | CC1(C)C[C@@H]2CC[C@@H](c3nc(-c4ccc(C(C)(O)c5cccc(C(F)(F)F)c5)cc4F)c4c(N)nccn34)CN2C1=O (stereo partly drawn) [Example 197, (6R,8aS)-6-[8-amino-1-(2-fluoro-4-{1-hydroxy-1-[3-(trifluoromethyl)phenyl]ethyl}phenyl)imidazo [1,5-a]pyrazin-3-yl]-2,2-dimethylhexahydroindolizin-3(2H)-one] |
| 7.14 | 5.83 |  | C[C@@](O)(c1ccc(-c2nc([C@H]3CC[C@@H]4COCC(=O)N4C3)n3ccnc(N)c23)cc1)c1cccc(C(F)(F)F)c1 [Example 156, (7S,9aR)-7-(8-amino-1-(4-{(1R)-1-hydroxy-1-[3-(trifluoromethyl)pheny]ethyl}phenyl)imidazo [1,5-a]pyrazin-3-yl]hexahydropyrido[2,1-c][1,4]oxazin-4(3H)-one] |
| 7.54 |  | 5.96 | CC(O)(c1ccc(-c2nc([C@@H]3CC[C@H]4CCC(=O)N4C3)n3ccnc(N)c23)cc1)c1cccc(C2CC2(F)F)c1 (stereo partly drawn) [Example 165, (6R,8aS)-6-[8-amino-1-(4-{1-[3-(2,2-difluorocyclopropyl)phenyl]-1-hydroxyethyl}phenyl)imidazo[1,5-a]pyrazin-3-yl]hexahydroindolizin-3(2H)-one] |
| 7.07 | 5.94 |  | C[C@@](O)(c1ccc(-c2nc([C@H]3CC[C@@H]4COCC(=O)N4C3)n3c(Cl)cnc(N)c23)cc1)c1cccc(C(F)(F)F)c1 [Example 174, (7S,9aR)-7-[8-amino-5-chloro-1-(4-{(1R)-1-hydroxy-1-[3-(trifluoromethyl)phenyl]ethyl}phenyl)imidazo [1,5-a]pyrazin-3-yl]hexahydropyrido[2,1-c][1,4]oxazin-4(3H)-one] |
| 6.00 | 6.33 |  | C[C@](O)(c1ccc(-c2nc([C@@H]3CC[C@H]4CCC(=O)N4C3)n3ccnc(N)c23)cc1)c1ccnc(C(F)(F)F)c1 [Example 154, (6R,8aS)-6-[8-amino-1-(4-{(1S)-1-hydroxy-1-[2-(trifluoromethyl)pyridin-4-yl]ethyl}phenyl)imidazo [1,5-a]pyrazin-3-yl]hexahydroindolizin-3(2H)-one] |
| 8.96 |  | 5.89 | CC(O)(c1cccc(C(F)(F)F)c1)c1ccc(-c2nc([C@@H]3CC[C@@H]4N(C3)C(=O)CC4(C)C)n3ccnc(N)c23)c(F)c1 (stereo partly drawn) [Example 194, (6R,8aS)-6-[8-amino-1-(2-fluoro-4-{1-hydroxy-1-[3-(trifluoromethyl)phenyl]ethyl}phenyl)imidazo [1,5-a]pyrazin-3-yl]-1,1-dimethylhexahydroindolizin-3(2H)-one] |
| 9.80 |  | 5.72 | CC(O)(c1cccc(C(F)F)c1)c1ccc(-c2nc([C@@H]3CC[C@@H]4N(C3)C(=O)CC4(C)C)n3ccnc(N)c23)c(F)c1 (stereo partly drawn) [Example 202, (6R,8aS)-6-(8-amino-1-(4-{1-[3-(difluoromethyl)phenyl]-1-hydroxyethyl}-2-fluorophenyl)imidazo[1,5-a]pyrazin-3-yl]-1,1-dimethylhexahydroindolizin-3(2H)-one] |
| 8.39 | 5.51 |  | CCOc1cc(C(O)(c2cccc(C(F)(F)F)c2)C(F)(F)F)ccc1-c1nc([C@@H]2CC[C@H]3CCC(=O)N3C2)n2ccnc(N)c12 (stereo partly drawn) [Example 214, (6R,8aS)-6-[8-amino-1-(2-ethoxy-4-{2,2,2-trifluoro-1-hydroxy-1-[3-(trifluoromethyl)phenyl]ethyl}phenyl)imidazo [1,5-a]pyrazin-3-yl]hexahydroindolizin-3(2H)-one] |

More lines, now with the values behind:

| Structure (SMILES) | pIC50 [1] | pIC50 ([2]; Homo sapiens, HeLa) | pIC50 [2] |
| --- | --- | --- | --- |
| C[C@@](O)(c1cccc(C(F)(F)F)c1)c1ccc(-c2nc([C@@H]3CC[C@H]4CCC(=O)N4C3)n3ccnc(N)c23)c(F)c1 [Example 102, (6R,8aS)-6-[8-amino-1-(2-fluoro-4-{(1R)-1-hydroxy-1-[3-(trifluoromethyl)phenyl]ethyl}phenyl)imidazo [1,5-a]pyrazin-3-yl]hexahydroindolizin-3(2H)-one] | 8.80 | 5.77 |  |
| CCOc1cc(C(C)(O)c2cccc(C(F)(F)F)c2)cc(F)c1-c1nc([C@@H]2CC[C@H]3CCC(=O)N3C2)n2ccnc(N)c12 (stereo partly drawn) [Example 22, (6R,8aS)-6-(8-amino-1-(2-ethoxy-6-fluoro-4-(1-hydroxy-1-(3-(trifluoromethyl)phenyl)ethyl)phenyl)imidazo[1,5-a]pyrazin-3-yl)hexahydroindolizin-3(2H)-one] | 8.77 | 5.42 |  |
| CC(F)(F)c1cccc([C@](C)(O)c2ccc(-c3nc([C@@H]4CC[C@H]5CCC(=O)N5C4)n4ccnc(N)c34)cc2)c1 [Example 132, (6R,8aS)-6-[8-amino-1-(4-{(1R)-1-[3-(1,1-difluoroethyl)phenyl]-1-hydroxyethyl}phenyl)imidazo[1,5-a]pyrazin-3-yl]hexahydroindolizin-3(2H)-one] | 9.52 | 5.53 |  |
| CO[C@@](C)(c1ccc(-c2nc([C@@H]3CC[C@H]4CCC(=O)N4C3)n3ccnc(N)c23)cc1)c1cccc(C(F)(F)F)c1 [Example 90, (6R,8aS)-6-[8-amino-1-(4-{(1S)-1-methoxy-1-[3-(trifluoromethyl)phenyl]ethyl}phenyl)imidazo [1,5-a]pyrazin-3-yl]hexahydroindolizin-3(2H)-one] | 6.00 | 6.01 |  |
| C[C@](O)(c1ccccc1)c1ccc(-c2nc([C@@H]3CC[C@H]4CCC(=O)N4C3)n3ccnc(N)c23)cc1 [Example 1, (6R,8aS)-6-(8-amino-1-(4-((S)-1-hydroxy-1-phenylethyl)phenyl)imidazo[1,5-a]pyrazin-3-yl)hexahydroindolizin-3(2H)-one] | 7.19 | 5.48 |  |
| C[C@](O)(c1ccc(-c2nc([C@@H]3CC[C@H]4CCC(=O)N4C3)n3ccnc(N)c23)cc1)c1cccc(C2CC2)c1 [Example 51, (6R,8aS)-6-(8-amino-1-{4-[(1S)-1-(3-cyclopropylphenyl)-1-hydroxyethyl]phenyl}imidazo[1,5-a]pyrazin-3-yl)hexahydroindolizin-3(2H)-one] | 8.23 | 6.25 |  |
| C[C@](O)(c1ccc(-c2nc([C@@H]3CC[C@H]4CCCN4C3)n3ccnc(N)c23)cc1)c1cccc(C(F)(F)F)c1 [Example 63, (1S)-1-(4-{8-amino-3-[(6R,8aS)-octahydroindolizin-6-yl]imidazo[1,5-a]pyrazin-1-yl}phenyl)-1-[3-(trifluoromethyl)phenyl] ethanol] | 6.00 | 5.83 |  |
| CC(O)(c1cccc(C(F)(F)F)c1)c1ccc(-c2nc([C@@H]3CC[C@H]4CCC(=O)N4C3)n3ccnc(N)c23)c(C(F)(F)F)c1 (stereo partly drawn) [Example 105, (6R,8aS)-6-{8-amino-1-[4-{1-hydroxy-1-[3-(trifluoromethyl)phenyl]ethyl}-2-(trifluoromethyl)phenyl]imidazo[1,5-a]pyrazin-3-yl}hexahydroindolizin-3(2H)-one] | 6.00 | 6.07 |  |
| Nc1nccn2c([C@@H]3CC[C@H]4CCC(=O)N4C3)nc(-c3ccc(C(O)c4cccc(C(F)(F)F)c4)cc3)c12 (stereo partly drawn) [Example 72, (6R,8aS)-6-[8-amino-1-(4-{hydroxy[3-(trifluoromethyl)phenyl]methyl}phenyl)imidazo [1,5-a]pyrazin-3-yl]hexahydroindolizin-3(2H)-one] | 7.69 |  | 6.33 |
| Cn1nc(C(C)(O)c2ccc(-c3nc([C@@H]4CC[C@H]5CCC(=O)N5C4)n4ccnc(N)c34)cc2)cc1C(F)(F)F (stereo partly drawn) [Example 35, (6R,8aS)-6-[8-amino-1-(4-{1-hydroxy-1-[1-methyl-5-(trifluoromethyl)-1H-pyrazol-3-yl]ethyl}phenyl)imidazo [1,5-a]pyrazin-3-yl]hexahydroindolizin-3(2H)-one] | 6.66 | 5.65 |  |
